# From patent US10034886B2, “GLP-1 receptor modulators” (Celgene International II SÀRL, priority 2014, dated 2018)
# Target: T1, GLP-1R (Homo sapiens, UniProt P43220)
# T1 construct: host or cells: GLP-1R CRE-bla CHO-K1 cells
# Experiment: EC20 GLP-1(9-36) PAM cAMP assay: dose response of compound in the presence of fixed concentration of GLP-1(9-36)
# Type: cell-based
# Details: GLP-1R CRE-bla CHO-K1 cells, compound dose response with fixed concentration of GLP-1(9-36), read-out: EC20 GLP-1(9-36) PAM EC50
# Outline: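 Positive allosteric modulation read as cAMP accumulation: compound titrations (12 points) combined with an EC20 level of GLP-1(9-36) on CHO-K1 GLP-1R CRE-bla cells, IBMX present, 30 min, 37 °C, pH 7.4 buffer. Luminescence converted to cAMP via standards; non-linear fit gave EC50 and Emax.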
# T1 sequence (P43220 24-463): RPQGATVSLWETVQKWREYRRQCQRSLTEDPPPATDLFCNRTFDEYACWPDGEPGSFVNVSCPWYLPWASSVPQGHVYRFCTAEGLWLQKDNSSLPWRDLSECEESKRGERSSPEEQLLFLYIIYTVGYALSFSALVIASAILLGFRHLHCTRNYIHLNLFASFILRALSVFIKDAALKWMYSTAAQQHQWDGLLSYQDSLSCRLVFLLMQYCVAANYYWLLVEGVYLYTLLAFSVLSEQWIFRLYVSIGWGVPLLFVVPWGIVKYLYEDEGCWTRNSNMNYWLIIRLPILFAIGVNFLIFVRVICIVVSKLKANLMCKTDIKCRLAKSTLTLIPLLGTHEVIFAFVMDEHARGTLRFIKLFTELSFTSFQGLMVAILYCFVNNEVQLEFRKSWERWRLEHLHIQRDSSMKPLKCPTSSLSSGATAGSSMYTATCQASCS
# T1 sequence (P01275 100-127 partner limits assumed): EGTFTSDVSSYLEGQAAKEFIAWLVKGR
row,EC50 [µM],Structure (SMILES)
1,< 0.8,CCCc1ccc(-c2ccc(-c3cnc(-c4ccc(C[C@H](NC(=O)c5ccc(CCC)s5)C(=O)N5CC(C(=O)O)C5)cc4)nc3)c(F)c2)cc1 [Compound 1409]

# Same assay, conditions: dose response of compound in presence of fixed concentration of GLP-1(9-36), GLP-1R CRE-bla CHO-K1 cells, read-out: EC20 GLP-1(9-36) PAM EC50
row,Structure (SMILES),EC50 [µM]
1,CCCCCCCOc1ccc(-c2cnc(-c3ccc(C[C@H](NC(=O)c4ccc(C(=O)c5ccccc5)cc4)C(=O)N[C@H](C)C(=O)O)cc3)nc2)cc1 [Compound 981],2.5 to 5
2,CC(C)(C)c1ccc(C(=O)N[C@@H](Cc2ccc(-c3ncc(-c4ccc(C(C)(C)C)cc4)cn3)cc2)C(=O)NCCC(=O)O)cc1 [Compound 675],5 to 10
3,CC(C)(C)c1ccc(C(=O)N[C@@H](Cc2ccc(-c3ncc(-c4ccc(OCC(F)(F)F)cc4)cn3)cc2)C(=O)NCCC(=O)O)cc1 [Compound 682],2.5 to 5
4,COc1ccccc1-c1ccc(-c2cnc(-c3ccc(C[C@H](NC(=O)c4ccc(C(C)(C)C)s4)C(=O)N[C@H](C)C(=O)O)cc3)nc2)cc1 [Compound 1012],2.5 to 5
5,CC(C)CCCOc1ccc(-c2cnc(-c3ccc(C[C@H](NC(=O)c4ccc(C(C)(C)C)s4)C(=O)NC(C(=O)O)C(O)c4ccccc4)cc3)nc2)cc1 (stereo partly drawn) [Compound 924],2.5 to 5
6,CCCCCCCOc1ccc(-c2cnc(-c3ccc(C[C@H](NC(=O)c4sc(C(C)(C)C)cc4C)C(=O)N4CC[C@H](C(=O)O)C4)cc3)nc2)cc1 [Compound 866],2.5 to 5
7,CCCCCCCOc1ccc(-c2cnc(-c3ccc(C[C@H](NC(=O)c4ccc(C(C)(C)C)s4)C(=O)N4CCCC4CC(=O)O)cc3)nc2)cc1 (stereo partly drawn) [Compound 621],2.5 to 5
8,CCCCCCCOc1ccc(-c2cnc(-c3ccc(C[C@H](NC(=O)c4ccc(C(C)(C)C)s4)C(=O)N4CCN(c5ncccn5)CC4)cc3)nc2)cc1 [Compound 967],2.5 to 5
9,CCCCCCCOc1ccc(-c2cnc(-c3ccc(C[C@H](NC(=O)c4ccc(C(C)(C)C)s4)C(=O)N4CC[C@H]4C(=O)O)cc3)nc2)cc1 [Compound 668],0.8 to 2.5
10,CCCCCCCOc1ccc(-c2cnc(-c3ccc(C[C@H](NC(=O)c4ccc(C(C)(C)C)s4)C(=O)N4C5CCC4C(C(=O)O)C5)cc3)nc2)cc1 (stereo partly drawn) [Compound 1049],0.8 to 2.5
11,CCCCCCOc1ccc(-c2cnc(-c3ccc(C[C@H](NC(=O)c4ccc(C(C)(C)C)s4)C(=O)N[C@H](C)C(=O)O)cc3)nc2)cc1 [Compound 735],0.8 to 2.5
12,CCCCCCCOc1ccc(-c2cnc(-c3ccc(C[C@H](NC(=O)c4ccc(C5CC5)s4)C(=O)N4CC[C@H](C(=O)O)C4)cc3)nc2)cc1 [Compound 865],0.8 to 2.5

# Continued, values first:
row,EC50 [µM],Structure (SMILES)
1,0.8 to 2.5,CCCCCCNc1ccc(-c2cnc(-c3ccc(C[C@H](NC(=O)c4ccc(C(C)(C)C)cc4)C(=O)N[C@H](C)C(=O)O)cc3)nc2)cc1 [Compound 729]
2,< 0.8,CCCCCCCOc1ccc(-c2cnc(-c3ccc(C[C@H](NC(=O)c4ccc(C(C)(C)C)cc4)C(=O)N[C@@H](Cc4ccc(O)cc4)C(=O)O)cc3)nc2)cc1 [Compound 451]
3,0.8 to 2.5,CCCCCCCOc1ccc(-c2cnc(-c3ccc(C[C@H](NC(=O)c4ccc(CC(C)C)cc4)C(=O)N4CC(C(=O)O)C4)cc3)nc2)cc1 [Compound 1116]
4,0.8 to 2.5,CCCCCCCOc1ccc(-c2cnc(-c3ccc(CC(NC(=O)c4ccc(C(C)(C)C)s4)C(=O)N[C@@H](CCCCN)C(=O)O)cc3)nc2)cc1 (stereo partly drawn) [Compound 427]
5,< 0.8,CC(C)(C)c1ccc(C(=O)N[C@@H](Cc2ccc(-c3ncc(-c4ccc([C@H]5CC[C@@H](C(C)(C)C)CC5)cc4)cn3)cc2)C(=O)N2CC(C(=O)O)C2)s1 [Compound 1182]
6,< 0.8,CC(C)(C)c1ccc(C(=O)N[C@@H](Cc2ccc(-c3ncc(-c4ccc(-c5ccc(C#N)cc5)cc4F)cn3)cc2)C(=O)N2CC(C(=O)O)C2)s1 [Compound 1201]
7,< 0.8,C[C@@H](NC(=O)[C@H](Cc1ccc(-c2ncc(-c3ccc(C4=CCC(F)(F)CC4)cc3)cn2)cc1)NC(=O)c1ccc(C(C)(C)C)s1)C(=O)O [Compound 1151]
8,< 0.8,CCCCCCCOc1ccc(-c2cnc(-c3ccc(C[C@H](NC(=O)c4ccc(C(C)(C)C)cc4)C(=O)NC(C(=O)O)c4ccco4)cc3)nc2)cc1 (stereo partly drawn) [Compound 440]
